# Source: publication PMC6979384, “Characterization of the plant homeodomain (PHD) reader family for their histone tail interactions” (Epigenetics & Chromatin, 2020)
# Assays:
# Assay in all cases: Histone peptide microarray
# Type in all cases: binding, human
# Details in all cases: sheet "Array Heatmap"; GST-tagged reader; histone peptide array, total n = 4
# [1] = tested on: AIRE (PP)
# How it was run: (§1)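 Purified PHD finger domains fused to GST are screened against 293 synthetic histone peptides bearing one or several post-translational modifications. The protein is used at 0.5 μM, and the signal from four replicate arrays is averaged, with standard deviation given.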
# [2] = tested on: BAZ2B
# How it was run: as §1
# [3] = tested on: BPTF (PB)
# How it was run: as §1
# [4] = tested on: CHD4 (PPCC)
# How it was run: as §1
# [5] = tested on: CHD5 (PCC)
# How it was run: as §1
# [6] = tested on: CHD5 (PPCC)
# How it was run: as §1
# [7] = tested on: DIDO1
# How it was run: as §1
# [8] = tested on: DPF2 (PPC2W2)
# How it was run: as §1
# [9] = tested on: ING1
# How it was run: as §1
# [10] = tested on: ING2
# How it was run: as §1
# [11] = tested on: ING3
# How it was run: as §1
# [12] = tested on: ING4
# How it was run: as §1
# [13] = tested on: ING5
# How it was run: as §1
# [14] = tested on: KDM4C (TTP)
# How it was run: as §1
# [15] = tested on: KDM5A (1)
# How it was run: as §1
# [16] = tested on: KDM5A (3)
# How it was run: as §1
# [17] = tested on: KDM5B (1)
# How it was run: as §1
# [18] = tested on: KDM5B (3)
# How it was run: as §1
# [19] = tested on: KDM7A
# How it was run: as §1
# [20] = tested on: MLL5
# How it was run: as §1
# [21] = tested on: MORC3 (CW)
# How it was run: as §1
# [22] = tested on: PHF13
# How it was run: as §1
# [23] = tested on: PHF21A
# How it was run: as §1
# [24] = tested on: PHF23
# How it was run: as §1
# [25] = tested on: PHF2
# How it was run: as §1
# [26] = tested on: PHF8
# How it was run: as §1
# [27] = tested on: PHRF1 (RP)
# How it was run: as §1
# [28] = tested on: RAG2
# How it was run: as §1
# [29] = tested on: SP140L
# How it was run: as §1
# [30] = tested on: TAF3
# How it was run: as §1
# [31] = tested on: TRIM66 (PB)
# How it was run: as §1
Substance,"Array Heatmap signal, AIRE (PP) [1]","Array Heatmap signal, BAZ2B [2]","Array Heatmap signal, BPTF (PB) [3]","Array Heatmap signal, CHD4 (PPCC) [4]","Array Heatmap signal, CHD5 (PCC) [5]","Array Heatmap signal, CHD5 (PPCC) [6]","Array Heatmap signal, DIDO1 [7]","Array Heatmap signal, DPF2 (PPC2W2) [8]","Array Heatmap signal, ING1 [9]","Array Heatmap signal, ING2 [10]","Array Heatmap signal, ING3 [11]","Array Heatmap signal, ING4 [12]","Array Heatmap signal, ING5 [13]","Array Heatmap signal, KDM4C (TTP) [14]","Array Heatmap signal, KDM5A (1) [15]","Array Heatmap signal, KDM5A (3) [16]","Array Heatmap signal, KDM5B (1) [17]","Array Heatmap signal, KDM5B (3) [18]","Array Heatmap signal, KDM7A [19]","Array Heatmap signal, MLL5 [20]",further results
H3T6p + K9ac + K14ac + K18ac: H3 1-20,0.4905,0.5434,0.3772,0.6105,0.8634,0.5917,0.7306,0.6625,0.5258,0.6332,0.5178,0.4858,0.4002,0.5471,0.5024,0.5014,0.6556,0.5165,0.5379,0.6174,"Array Heatmap signal, MORC3 (CW) [21]: 0.436; Array Heatmap signal, PHF13 [22]: 0.6581; Array Heatmap signal, PHF21A [23]: 0.4965; Array Heatmap signal, PHF23 [24]: 0.5587; Array Heatmap signal, PHF2 [25]: 0.4724; Array Heatmap signal, PHF8 [26]: 0.3706; Array Heatmap signal, PHRF1 (RP) [27]: 0.4494; Array Heatmap signal, RAG2 [28]: 0.2892; Array Heatmap signal, SP140L [29]: 0.3823; Array Heatmap signal, TAF3 [30]: 0.2973; Array Heatmap signal, TRIM66 (PB) [31]: 0.6292"
H3T6p: H3 1-20 [Peptide H3T6p],0.5235,0.5538,0.4149,0.6596,0.9074,0.6595,0.87,0.8292,0.6423,0.6272,0.5766,0.5347,0.4298,0.5715,0.5432,0.5721,0.7098,0.5406,0.3941,0.6202,"Array Heatmap signal, MORC3 (CW) [21]: 0.5106; Array Heatmap signal, PHF13 [22]: 0.7024; Array Heatmap signal, PHF21A [23]: 0.4969; Array Heatmap signal, PHF23 [24]: 0.6281; Array Heatmap signal, PHF2 [25]: 0.6372; Array Heatmap signal, PHF8 [26]: 0.4328; Array Heatmap signal, PHRF1 (RP) [27]: 0.6983; Array Heatmap signal, RAG2 [28]: 0.3038; Array Heatmap signal, SP140L [29]: 0.3962; Array Heatmap signal, TAF3 [30]: 0.311; Array Heatmap signal, TRIM66 (PB) [31]: 0.7122"
